Source: US9988390B2, “Pyrimidone derivatives and their use in the treatment, amelioration or prevention of a viral disease” (F. Hoffmann-La Roche AG, priority 2015, dated 2018)
Counter-ions that a name gives are not always drawn.

These molecules were tested on influenza A virus (A/WSN/33 NanoLuc reporter virus) in A549 cells (assay: microbe, parasite or virus in culture). Details: A549, 24 h, read-out: IC50 values of viral replication inhibition in a cell-based Luciferase Reporter Assay (LRA).
Type: cell-based

| Compound | IC50 |
| --- | --- |
| CCN1CC(C(c2ccccc2)c2ccccc2)n2c(OC)nc(=O)c(O)c2C1=O (stereo not drawn) [Ia-64, 4-Benzhydryl-2-ethyl-9-hydroxy-6-methoxy-3,4-dihydropyrazino[1,2-c]pyrimidine-1,8-dione] | 50 nM |
| COc1ccc(CNc2nc(=O)c(O)c3n2[C@@H](C(c2ccccc2)c2ccccc2)CN(C(C)C)C3=O)cc1 [Example 1a-2, (4S)-4-Benzhydryl-9-hydroxy-2-isopropyl-6-[(4-methoxyphenyl)methylamino]-3,4-dihydropyrazino[1,2-c]pyrimidine-1,8-dione formate] | 2070 nM |
| CC(C)N1C[C@H](C2c3ccccc3CCc3ccccc32)n2c(-n3ccnc3)nc(=O)c(O)c2C1=O [Ia-45, (4S)-4-(6,11-Dihydro-5H-dibenzo[2,1-b:1′,2′-e][7]annulen-11-yl)-9-hydroxy-6-imidazol-1-yl-2-isopropyl-3,4-dihydropyrazino[1,2-c]pyrimidine-1,8-dione] | 62 nM |
| CC(C)N1C[C@H](C(c2ccccc2)c2ccccc2)n2cnc(=O)c(O)c2C1=O [Ia-27, (4S)-4-Benzhydryl-9-hydroxy-2-isopropyl-3,4-dihydropyrazino[1,2-c]pyrimidine-1,8-dione] | 232 nM |
| CC(C)N1C[C@H](C(c2ccccc2)c2ccccc2)n2c(C(N)=O)nc(=O)c(O)c2C1=O [Ia-52, (4S)-4-Benzhydryl-9-hydroxy-2-isopropyl-1,8-dioxo-3,4-dihydropyrazino[1,2-c]pyrimidine-6-carboxamide] | 93 nM |
| CCCCOc1nc(=O)c(O)c2n1[C@@H](C(c1ccccc1)c1ccccc1)CN(C(C)C)C2=O [Example 1a-15, (4S)-4-Benzhydryl-6-butoxy-9-hydroxy-2-isopropyl-3,4-dihydropyrazino[1,2-c]pyrimidine-1,8-dione] | 15300 nM |
| COc1nc(=O)c(O)c2n1[C@@H](C1c3ccccc3CCc3ccccc31)CN(C(C)C)C2=O [Example 1a-8, (4S)-4-(10,11-Dihydro-5H-dibenzo[a,d][7]annulen-5-yl)-9-hydroxy-6-methoxy-2-(propan-2-yl)-3,4-dihydro-2H-pyrazino[1,2-c]pyrimidine-1,8-dione] | 6 nM |
| CC(C)N1C[C@H](C(c2ccccc2)c2ccccc2)n2c(-n3cnnc3)nc(=O)c(O)c2C1=O [Ia-44, (4S)-4-Benzhydryl-9-hydroxy-2-isopropyl-6-(1,2,4-triazol-4-yl)-3,4-dihydropyrazino[1,2-c]pyrimidine-1,8-dione] | 130 nM |
| CC(C)N1C[C@H](C(c2ccccc2)c2ccccc2)n2c(-n3ccnc3)nc(=O)c(O)c2C1=O [Ia-43, (4S)-4-Benzhydryl-9-hydroxy-6-imidazol-1-yl-2-isopropyl-3,4-dihydropyrazino[1,2-c]pyrimidine-1,8-dione] | 495 nM |
| CC(C)N1CC(C2c3ccccc3CCc3ccccc32)n2c(CO)nc(=O)c(O)c2C1=O (stereo not drawn) [Ia-48, 4-(6,11-Dihydro-5H-dibenzo[2,1-b:1′,2′-e][7]annulen-11-yl)-9-hydroxy-6-(hydroxymethyl)-2-isopropyl-3,4-dihydropyrazino[1,2-c]pyrimidine-1,8-dione] | 20 nM |
| CC(C)N1C[C@H](C(c2ccccc2)c2ccccc2)n2c(c(O)c(=O)n(Cc3ccccc3)c2=O)C1=O [Example 1b-2, (4S)-4-Benzhydryl-7-benzyl-9-hydroxy-2-isopropyl-3,4-dihydropyrazino[1,2-c]pyrimidine-1,6,8-trione] | 4300 nM |
| COCCOc1nc(=O)c(O)c2n1[C@@H](C(c1ccccc1)c1ccccc1)CN(C)C2=O [Ia-73, (4S)-4-Benzhydryl-9-hydroxy-6-(2-methoxyethoxy)-2-methyl-3,4-dihydropyrazino[1,2-c]pyrimidine-1,8-dione] | 119 nM |
| CC(C)N1C[C@H](C(c2ccccc2)c2ccccc2)n2c(S(C)(=O)=O)nc(=O)c(O)c2C1=O [Ia-38, (4S)-4-Benzhydryl-9-hydroxy-2-isopropyl-6-methylsulfonyl-3,4-dihydropyrazino[1,2-c]pyrimidine-1,8-dione] | 110 nM |
| CC(C)Nc1nc(=O)c(O)c2n1[C@@H](C1c3ccccc3CCc3ccccc31)CN(C(C)C)C2=O [Ia-36, (4S)-4-(6,11-Dihydro-5H-dibenzo[2,1-b:1′,2′-e][7]annulen-11-yl)-9-hydroxy-2-isopropyl-6-(isopropylamino)-3,4-dihydropyrazino[1,2-c]pyrimidine-1,8-dione] | 103 nM |
| CC(C)N1CC(C2c3cccc(F)c3CCc3c(F)cccc32)n2c(O)nc(=O)c(O)c2C1=O (stereo not drawn) [Ia-25, 4-(4,7-Difluoro-6,11-dihydro-5H-dibenzo[1,3-b:3′,1′-e][7]annulen-11-yl)-6,9-dihydroxy-2-isopropyl-3,4-dihydropyrazino[1,2-c]pyrimidine-1,8-dione] | 86 nM |
| CC(C)N1C[C@H](C(c2ccccc2)c2ccccc2)n2c(NCC(F)(F)F)nc(=O)c(O)c2C1=O [Ia-33, (4S)-4-Benzhydryl-9-hydroxy-2-isopropyl-6-(2,2,2-trifluoroethylamino)-3,4-dihydropyrazino[1,2-c]pyrimidine-1,8-dione] | 273 nM |

| Compound | IC50 |
| --- | --- |
| CC(C)N1C[C@H](C(c2ccccc2)c2ccccc2)n2c(CN)nc(=O)c(O)c2C1=O [Ia-54, (4S)-6-(Aminomethyl)-4-benzhydryl-9-hydroxy-2-isopropyl-3,4-dihydropyrazino[1,2-c]pyrimidine-1,8-dione] | 931 nM |
| CNC(=N)Nc1nc(=O)c(O)c2n1[C@@H](C(c1ccccc1)c1ccccc1)CN(C(C)C)C2=O [Ia-50, 1-[(4S)-4-Benzhydryl-9-hydroxy-2-isopropyl-1,8-dioxo-3,4-dihydropyrazino[1,2-c]pyrimidin-6-yl]-3-methyl-guanidine] | 1070 nM |
| CC(=O)Nc1nc(=O)c(O)c2n1[C@@H](C(c1ccccc1)c1ccccc1)CN(C(C)C)C2=O [Example 1a-16, N-[(4S)-4-Benzhydryl-9-hydroxy-2-isopropyl-1,8-dioxo-3,4-dihydropyrazino[1,2-c]pyrimidin-6-yl]acetamide] | 23 nM |
| CC(C)N1C[C@H](C2c3ccccc3CCc3ccccc32)n2cnc(=O)c(O)c2C1=O [Ia-29, (4S)-4-(6,11-Dihydro-5H-dibenzo[2,1-b:1′,2′-e][7]annulen-11-yl)-9-hydroxy-2-isopropyl-3,4-dihydropyrazino[1,2-c]pyrimidine-1,8-dione] | 22 nM |
| CC(C)N1C[C@H](C2c3ccccc3CCc3ccccc32)n2c([S+](C)[O-])nc(=O)c(O)c2C1=O (stereo partly drawn) [Ia-31, (4S)-4-(6,11-Dihydro-5H-dibenzo[2,1-b:1′,2′-e][7]annulen-11-yl)-9-hydroxy-2-isopropyl-6-methylsulfinyl-3,4-dihydropyrazino[1,2-c]pyrimidine-1,8-dione] | 15 nM |
| CC(C)N1CC(C2c3ccccc3CCc3ccccc32)n2c(S)nc(=O)c(O)c2C1=O (stereo not drawn) [Ia-75, 4-(6,11-Dihydro-5H-dibenzo[2,1-b:1′,2′-e][7]annulen-11-yl)-9-hydroxy-2-isopropyl-6-sulfanyl-3,4-dihydropyrazino[1,2-c]pyrimidine-1,8-dione] | 45 nM |
| CC(C)N1C[C@H](C(c2ccccc2)c2ccccc2)n2c(-c3ccccc3)nc(=O)c(O)c2C1=O [Ia-42, (4S)-4-benzhydryl-9-hydroxy-2-isopropyl-6-phenyl-3,4-dihydropyrazino[1,2-c]pyrimidine-1,8-dione] | 126 nM |
| CC(C)N1C[C@H](C(c2ccccc2)c2ccccc2)n2c(NS(C)(=O)=O)nc(=O)c(O)c2C1=O [Example 1a-17, N-[(4S)-4-benzhydryl-9-hydroxy-2-isopropyl-1,8-dioxo-3,4-dihydropyrazino[1,2-c]-pyrimidin-6-yl]methanesulfonamide] | 1670 nM |
| COc1nc(=O)c(O)c2n1[C@@H]([C@H](c1ccccc1)c1ccc(Cl)cc1)CN(C(C)C)C2=O [Ia-72, (4S)-4-[(R)-(4-Chlorophenyl)-phenyl-methyl]-9-hydroxy-2-isopropyl-6-methoxy-3,4-dihydropyrazino[1,2-c]pyrimidine-1,8-dione] | 40 nM |
| CC[S+]([O-])c1nc(=O)c(O)c2n1[C@@H](C(c1ccccc1)c1ccccc1)CN(C(C)C)C2=O (stereo partly drawn) [Ia-32, (4S)-4-Benzhydryl-6-ethylsulfinyl-9-hydroxy-2-isopropyl-3,4-dihydropyrazino[1,2-c]pyrimidine-1,8-dione] | 117 nM |
| CC(C)N1C[C@H](C2c3ccccc3CCc3ccccc32)n2c(O)nc(=O)c(O)c2C1=O [Example 1a-10, (4S)-4-(10,11-Dihydro-5H-dibenzo[a,d][7]annulen-5-yl)-6,9-dihydroxy-2-(propan-2-yl)-3,4-dihydro-2H-pyrazino[1,2-c]pyrimidine-1,8-dione] | 98 nM |
| CCSc1nc(=O)c(O)c2n1[C@@H](C(c1ccccc1)c1ccccc1)CN(C(C)C)C2=O [Ia-24, (4S)-4-Benzhydryl-6-ethylsulfanyl-9-hydroxy-2-isopropyl-3,4-dihydropyrazino[1,2-c]pyrimidine-1,8-dione] | 11900 nM |
| COc1nc(=O)c(O)c2n1[C@@H](C(c1ccc(F)cc1)c1ccc(F)cc1)CN(C(C)C)C2=O [Ia-71, (4S)-4-[Bis(4-fluorophenyl)methyl]-9-hydroxy-2-isopropyl-6-methoxy-3,4-dihydropyrazino[1,2-c]pyrimidine-1,8-dione] | 47 nM |
| CC(C)N1C[C@H](C(c2ccccc2)c2ccccc2)n2c(N)nc(=O)c(O)c2C1=O [Example 1a-3, (4S)-6-Amino-4-benzhydryl-9-hydroxy-2-isopropyl-3,4-dihydropyrazino[1,2-c]pyrimidine-1,8-dione] | > 50000 nM |
| COc1nc(=O)c(O)c2n1C(C1c3cccc(F)c3CCc3c(F)cccc31)CN(C(C)C)C2=O (stereo not drawn) [Example 1a-20, 4-(1,9-Difluoro-10,11-dihydro-5H-dibenzo[a,d][7]annulen-5-yl)-9-hydroxy-6-methoxy-2-(propan-2-yl)-3,4-dihydro-2H-pyrazino[1,2-c]pyrimidine-1,8-dione] | 16 nM |
| CC(C)N1C[C@H](C2c3ccccc3CCc3ccccc32)n2c(-n3cnnc3)nc(=O)c(O)c2C1=O [Ia-46] | 55 nM |

Same assay, conditions: A549, isomers identified by X-ray analysis, read-out: IC50

| Compound | IC50 |
| --- | --- |
| COc1nc(=O)c(O)c2n1[C@H]([C@@H]1c3ccccc3CSc3ccccc31)CN(C(C)C)C2=O (single isomer, unassigned) [Example 15] | 34 nM |
